Laboratory results as given in paper PMC6941124 (International Journal of Molecular Sciences, 2019).
Positions count from the first letter of the chain named.

How the values were obtained:
[1] = target: CK1δ wild type (GST-CK1δ) (Homo sapiens, UniProt P48730); experiment: in vitro kinase assay, GST-CK1δ wild type; type: biochemical; conditions: for Kinase activity of CK1δ in presence of inhibitor: 10 µM inhibitor, initial screening; for IC50: dilution series 0.005−10 µM, mean ± standard error, triplicate
Method: (§1) Overexpression and purification of GST-CK1δ fusion proteins, either wild type or mutant, were performed as described previously.
(§2) Each kinase assay reaction was performed in kinase buffer (25 mM Tris-HCl (pH 7.5), 10 μM ATP, 10 mM MgCl2, 100 μM EDTA) in presence of purified GST-CK1δ kinase as source of enzyme (either wild type or mutant), an assay-specific substrate (α-casein, GST-p53^1−64, or GST-β-catenin^1−181), and radiolabeled ATP (2 μCi [γ-^32P]-ATP). For performing Michaelis–Menten analysis increasing substrate concentrations were used (α-casein: 0.39−25 μM; GST-p53^1−64: 0.09−1.87 μM; GST-β-catenin^1−181: 0.07−1.32 μM). For biological evaluation of small molecule inhibitors (SMIs), each inhibitor compound was either tested at 10 μM concentration for initial screening or by using a dilution series (0.005−10 µM) for determination of IC50 values. DMSO was used as control. Reactions were incubated for 30 min at 30 °C and reactions were stopped using 5x SDS-loading buffer (250 mM Tris-HCl [pH 6.8], 25% (v/v) β-mercaptoethanol (MSH), 50% (v/v) glycerol, 10% (w/v) SDS, 0.5% (w/v) bromphenol blue). Subsequently, samples were separated by SDS-PAGE using 12.5% acrylamide gels, stained with Coomassie, and phosphorylated substrates were visualized on X-ray film. Incorporation of radiolabeled phosphate was quantified by scintillation counting of Coomassie-stained substrate bands. Defined dilutions of the reaction master mix were counted as well in order to convert results obtained as counts per minute (CPM) to units of transferred phosphate in pmol/min. Michaelis–Menten analysis was performed using GraphPad Prism 6 (GraphPad Software, San Diego, CA, USA).

CK1δ R127Q = target: T1, CK1δ R127Q (Homo sapiens, UniProt P48730, R127Q); experiment: in vitro kinase assay, CK1δ mutant R127Q; type: biochemical; conditions: 10 µM inhibitor, Figure 5b
T1 sequence (P48730 1-415 R127Q): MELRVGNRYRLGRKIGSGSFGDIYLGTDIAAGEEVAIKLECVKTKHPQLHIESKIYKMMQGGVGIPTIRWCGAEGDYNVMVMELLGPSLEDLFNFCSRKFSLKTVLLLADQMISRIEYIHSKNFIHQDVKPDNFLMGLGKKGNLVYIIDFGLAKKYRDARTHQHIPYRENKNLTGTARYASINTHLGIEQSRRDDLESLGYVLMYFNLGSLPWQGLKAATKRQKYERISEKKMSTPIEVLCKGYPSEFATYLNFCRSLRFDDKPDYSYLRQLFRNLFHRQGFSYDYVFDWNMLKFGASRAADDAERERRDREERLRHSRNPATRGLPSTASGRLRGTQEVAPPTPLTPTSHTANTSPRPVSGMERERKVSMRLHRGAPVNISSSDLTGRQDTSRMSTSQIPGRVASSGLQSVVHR
Method: as §1, §2

CK1δ T67S = target: T2, CK1δ T67S (Homo sapiens, UniProt P48730, T67S); experiment: in vitro kinase assay, CK1δ mutant T67S; type: biochemical; conditions: 10 µM inhibitor, Figure 5a
T2 sequence (P48730 1-415 T67S): T1 sequence (P48730 1-415 R127Q) with T67S, Q127R
Method: as §1, §2

CK1α = CK1α (Homo sapiens, UniProt P48729); experiment: in vitro kinase assay, CK1α; type: biochemical; conditions: 10 µM inhibitor, initial screening
CK1γ = experiment: in vitro kinase assay, CK1γ; type: biochemical; conditions: 10 µM inhibitor, initial screening
CK1ε = CK1ε (Homo sapiens, UniProt P49674); experiment: in vitro kinase assay, CK1ε; type: biochemical; conditions: 10 µM inhibitor, initial screening
parental HeLa cells = experiment: MTT viability assay, parental HeLa cells; type: cell-based; conditions: 25 μM, 48 h
Method: (§3) Parental HeLa cells, as well as HeLa CSNK1D knock-out cells (CK1δ^−/−) (generated by CRISP/Cas9 technology and provided by EDIGENE, Beijing, China), were cultured in Dulbecco’s Modified Eagle medium (DMEM). HCT-116 and HT-29 colon cancer cells were cultured in McCoy’s 5A medium whereas SW480 and SW620 colon cancer cells were cultured in Leibovitz’s L-15 medium. All media were supplemented with 10% (v/v) fetal bovine serum (FBS), 100 units/mL penicillin, and 100 µg/mL streptomycin. DMEM-based medium for the culture of HeLa CSNK1D knock-out cells was additionally supplemented with 1 μg/mL puromycin. Cell cultures were maintained at 37 °C in a humidified atmosphere containing 5% CO2. Cells were transfected using Effectene transfection reagent (Qiagen, Hilden, Germany) according to the manufacturer’s instructions. […]
(§4) For performing MTT viability assays, cells were seeded in a 96-well plate (5 × 10^4 cells/well for HeLa cells (parental, CK1δ^−/−, or CK1δ^−/− cells stably transfected with wild type or mutant CK1δ), HCT-116, and HT-29 cells or 7.5 × 10^4 cell/well for SW480 and SW620 cells). […] Absorbance was measured at 570 nm with TriStar^2 LB942 Microplate Reader (Berthold Technologies, Bad Wildbad, Germany) and data analysis was performed using GraphPad Prism 6 (GraphPad Software, San Diego, CA, USA).

HeLa CK1δ−/− cells = experiment: MTT viability assay, HeLa CK1δ−/− cells; type: cell-based; conditions: 48 h; for Effects on cell viability of CK1δ−/− cells compared to parental and/or CK1δ+/+ cells: 25 μM
Method: (§5) Parental HeLa cells, as well as HeLa CSNK1D knock-out cells (CK1δ^−/−) (generated by CRISP/Cas9 technology and provided by EDIGENE, Beijing, China), were cultured in Dulbecco’s Modified Eagle medium (DMEM). HCT-116 and HT-29 colon cancer cells were cultured in McCoy’s 5A medium whereas SW480 and SW620 colon cancer cells were cultured in Leibovitz’s L-15 medium. All media were supplemented with 10% (v/v) fetal bovine serum (FBS), 100 units/mL penicillin, and 100 µg/mL streptomycin. DMEM-based medium for the culture of HeLa CSNK1D knock-out cells was additionally supplemented with 1 μg/mL puromycin. Cell cultures were maintained at 37 °C in a humidified atmosphere containing 5% CO2. Cells were transfected using Effectene transfection reagent (Qiagen, Hilden, Germany) according to the manufacturer’s instructions. For selection of stably transfected clones, transfected cells were grown in selective medium, containing 0.6 mg/mL of G-418 (Calbiochem-Merck Millipore, Darmstadt, Germany).
(§6) For performing MTT viability assays, cells were seeded in a 96-well plate (5 × 10^4 cells/well for HeLa cells (parental, CK1δ^−/−, or CK1δ^−/− cells stably transfected with wild type or mutant CK1δ), HCT-116, and HT-29 cells or 7.5 × 10^4 cell/well for SW480 and SW620 cells). After 24 h, old medium was replaced with fresh medium containing either the small molecule of interest or DMSO as control. After 48 h of treatment, 10 μL MTT (5 mg/mL) was added and incubated at 37 °C for 4 h. The medium was then gently removed and 100 μL of acidic isopropanol was added (90% (v/v) isopropanol, 10% (v/v) 1 N HCl). Cell culture plates were then shaken for 30 min at room temperature. Absorbance was measured at 570 nm with TriStar^2 LB942 Microplate Reader (Berthold Technologies, Bad Wildbad, Germany) and data analysis was performed using GraphPad Prism 6 (GraphPad Software, San Diego, CA, USA).

CK1δ R168H = target: T3, CK1δ R168H (Homo sapiens, UniProt P48730, R168H); experiment: in vitro kinase assay, CK1δ mutant R168H; type: biochemical; conditions: 10 µM inhibitor, among 16-19, Figure 5c
T3 sequence (P48730 1-415 R168H): T1 sequence (P48730 1-415 R127Q) with Q127R, R168H
Method: as §1, §2

[2] = system: HeLa CK1δ+/+ cells (HeLa CK1δ−/− stably transfected with CK1δ); experiment: MTT viability assay, HeLa CK1δ+/+ cells; type: cell-based; conditions: 48 h; for Cell viability of CK1δ-expressing cells (HeLa parental or CK1δ+/+) compared to CK1δ-deficient cells (HeLa CK1δ−/−): 25 μM
Method: as §5, §6

[3] = system: HeLa CK1δ−/− cells expressing CK1δ T67S; experiment: MTT viability assay, HeLa CK1δ−/− cells expressing CK1δ T67S; type: cell-based; conditions: 10 μM, 48 h
Method: as §3, §4

[4] = system: HeLa CK1δ−/− cells expressing CK1δ R127Q; experiment: MTT viability assay, HeLa CK1δ−/− cells expressing CK1δ R127Q; type: cell-based; conditions: 10 μM, 48 h, difference not statistically significant
Method: as §3, §4

[5] = system: HeLa CK1δ−/− cells expressing CK1δ R168H; experiment: MTT viability assay, HeLa CK1δ−/− cells expressing CK1δ R168H; type: cell-based; conditions: 10 μM, 48 h
Method: as §3, §4

HT-29 colon cancer cells = experiment: MTT viability assay, HT-29; type: cell-based; conditions: 10 µM, 48 h, initial screening (Figure 10a)
Method: as §5, §6

SW480 colon cancer cells = experiment: MTT viability assay, SW480; type: cell-based, human; conditions: 10 µM, 48 h, initial screening (Figure 10a)
Method: as §5, §6

SW620 colon cancer cells = experiment: MTT viability assay, SW620; type: cell-based, human; conditions: 48 h
Method: as §5, §6

CK1ε, sequence (P49674 whole entry): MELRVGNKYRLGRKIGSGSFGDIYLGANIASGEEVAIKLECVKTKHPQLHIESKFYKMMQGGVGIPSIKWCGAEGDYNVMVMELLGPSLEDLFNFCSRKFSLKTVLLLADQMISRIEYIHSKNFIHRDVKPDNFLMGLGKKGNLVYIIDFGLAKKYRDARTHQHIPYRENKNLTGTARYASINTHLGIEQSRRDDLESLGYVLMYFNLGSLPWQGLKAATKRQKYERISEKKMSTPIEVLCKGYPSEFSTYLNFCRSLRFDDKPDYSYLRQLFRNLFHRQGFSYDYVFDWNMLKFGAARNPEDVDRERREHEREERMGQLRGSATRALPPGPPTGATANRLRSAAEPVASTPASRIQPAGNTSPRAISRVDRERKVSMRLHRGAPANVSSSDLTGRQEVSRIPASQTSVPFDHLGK
CK1δ wild type (GST-CK1δ), sequence (P48730 whole entry, the tested form may be a part): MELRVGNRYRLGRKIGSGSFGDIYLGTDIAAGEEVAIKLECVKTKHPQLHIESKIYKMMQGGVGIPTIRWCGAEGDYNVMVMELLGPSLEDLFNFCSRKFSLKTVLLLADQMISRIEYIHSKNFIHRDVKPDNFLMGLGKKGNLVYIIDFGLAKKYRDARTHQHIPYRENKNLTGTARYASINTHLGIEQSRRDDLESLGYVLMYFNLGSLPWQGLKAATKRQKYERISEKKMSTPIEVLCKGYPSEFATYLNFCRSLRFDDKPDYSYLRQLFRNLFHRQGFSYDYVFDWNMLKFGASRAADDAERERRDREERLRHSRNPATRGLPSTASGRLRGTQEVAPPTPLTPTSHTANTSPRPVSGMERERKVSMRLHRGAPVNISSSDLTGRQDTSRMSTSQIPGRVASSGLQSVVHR
CK1α, sequence (P48729 whole entry): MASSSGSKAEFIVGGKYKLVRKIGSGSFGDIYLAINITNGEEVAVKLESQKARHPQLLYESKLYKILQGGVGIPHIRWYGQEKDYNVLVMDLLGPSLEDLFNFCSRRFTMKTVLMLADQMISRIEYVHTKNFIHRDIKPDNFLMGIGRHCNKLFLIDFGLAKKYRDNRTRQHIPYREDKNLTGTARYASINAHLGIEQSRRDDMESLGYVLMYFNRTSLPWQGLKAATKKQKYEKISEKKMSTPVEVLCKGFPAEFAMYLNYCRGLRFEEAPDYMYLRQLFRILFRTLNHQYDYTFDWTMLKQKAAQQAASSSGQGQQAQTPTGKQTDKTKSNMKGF

| Kinase activity of CK1δ in presence of inhibitor [1] | IC50 [1] [µM] | Inhibition of CK1δ T67S compared to wild type CK1δ (CK1δ T67S) | Kinase activity of CK1α in presence of inhibitor (CK1α) | Kinase activity of CK1γ in presence of inhibitor (CK1γ) | Kinase activity of CK1ε in presence of inhibitor (CK1ε) | SMILES | Effects on cell viability of parental HeLa cells, compared with compounds 18 and 19 (parental HeLa cells) | Effects on cell viability of CK1δ−/− cells compared to parental and/or CK1δ+/+ cells (HeLa CK1δ−/− cells) | Cell viability of CK1δ-expressing cells (HeLa parental or CK1δ+/+) compared to CK1δ-deficient cells (HeLa CK1δ−/−) [2] | other results |
| --- | --- | --- | --- | --- | --- | --- | --- | --- | --- | --- |
| strongly inhibited | 2 | slightly stronger | not affected | not affected | strongly inhibited | O=C(CSc1nccc(=O)n1-c1ccccc1)Nc1nc2ccc(C(F)(F)F)cc2s1 [Compound 16, 2-((3-Phenyl-4-oxo-3,4-dihydropyrimidin-2-yl)thio)-N-(6-(trifluoromethyl)benzo-[d]thiazol-2-yl)acetamide] | less pronounced | not reduced |  | Inhibition of CK1δ R127Q kinase activity compared to wild type CK1δ (CK1δ R127Q): significantly stronger inhibited |
| strongly inhibited | 1.7 | slightly stronger | not affected | not affected | strongly inhibited | COc1ccc(-n2c(SCC(=O)Nc3nc4ccc(C(F)(F)F)cc4s3)nccc2=O)c(OC)c1 [Compound 18, 2-((3-(2,4-Dimethoxyphenyl)-4-oxo-3,4-dihydropyrimidin-2-yl)thio)-N-(6-(trifluoromethyl)benzo[d]thiazol-2-yl)acetamide] |  |  | more reduced | Effects on CK1δ R168H activity (CK1δ R168H): strongest effects; EC50 (HeLa CK1δ−/− cells; CK1, 0.313-70 µM, read-out: EC50 (CK1δ−/−), cell viability): 18.5 µM; EC50 ([2]; CK1, 0.313-70 µM, read-out: EC50 (CK1δ+/+), cell viability): 7.4 µM; Effects on cell viability of CK1δ T67S-expressing HeLa cells vs CK1δ WT-expressing cells [3]: stronger effects; Effects on cell viability of CK1δ R127Q-expressing HeLa cells vs CK1δ WT-expressing cells [4]: stronger effects; Effects on cell viability of CK1δ R168H-expressing HeLa cells vs CK1δ WT-expressing cells [5]: stronger effects |
| strongly inhibited |  | slightly stronger | not affected | not affected | strongly inhibited | COc1ccc(OC)c(-n2c(SCC(=O)Nc3nc4ccc(C(F)(F)F)cc4s3)nccc2=O)c1 [Compound 17, 2-((3-(2,5-Dimethoxyphenyl)-4-oxo-3,4-dihydropyrimidin-2-yl)thio)-N-(6-(trifluoromethyl)benzo[d]thiazol-2-yl)acetamide] | less pronounced | not reduced |  |  |
| strongly inhibited | 0.12 |  |  | not affected | strongly inhibited | O=C(CSc1nccc(=O)n1Cc1ccc(C(F)(F)F)cc1)Nc1nc2ccc(C(F)(F)F)cc2s1 [Compound 21, 2-((3-(4-Trifluoromethylbenzyl)-4-oxo-3,4-dihydropyrimidin-2-yl)thio)-N-(6-(trifluoromethyl)benzo[d]thiazol-2-yl)acetamide] |  |  |  | Reduction of CK1α activity (CK1α): at least 50%; Reduction of cell viability, HT-29 (HT-29 colon cancer cells): minor changes; Reduction of cell viability, SW480 (SW480 colon cancer cells): minor changes; Reduction of cell viability, SW620 (SW620 colon cancer cells; 10 µM, initial screening (Figure 10a)): ~50%; Dose-dependent effects on SW620 cell viability (SW620 colon cancer cells; 0.625 to 20 µM, MTT (Figure S2)): only visible at the highest concentrations tested |
| strongly inhibited |  |  | not affected | not affected | strongly inhibited | COc1cc(OC)cc(-n2c(SCC(=O)Nc3nc4ccc(C(F)(F)F)cc4s3)nccc2=O)c1 [Compound 19, 2-((3-(3,5-Dimethoxyphenyl)-4-oxo-3,4-dihydropyrimidin-2-yl)thio)-N-(6-(trifluoromethyl)benzo[d]thiazol-2-yl)acetamide] |  |  | more reduced |  |
